From ChEMBL document CHEMBL1201862, “PubChem BioAssay data set” (2004)
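1) Cells in 96-well plates. 2) Compound, 48 h, 5 concentrations. 3) Linear interpolation between surrounding doses. 4) Unreached endpoint = highest concentration. At the GI50, growth is halved.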 Activity calls are given as the source filed them. No stated cut-off is given here; in the data, active = GI50 up to about 1.1 µM and inactive = higher.

What was measured:
Assay in all cases: inhibition of tumour cell growth, NCI panel, 48 h
[1] = system: 786-0
[2] = system: A549
[3] = system: HCT-15
[4] = system: LOX IMVI
[5] = system: NCI-H460
[6] = system: NCI-H522
[7] = system: OVCAR-4
[8] = system: RPMI-8226
[9] = system: SF-268
[10] = system: SK-MEL-28
[11] = system: SK-OV-3
[12] = system: SN12C
[13] = system: SW-620
[14] = system: UACC-62
[15] = system: A498
[16] = system: IGROV-1
[17] = system: NCI-H23

SMILES | GI50 [1] | GI50 [2] | GI50 [3] [µM] | GI50 [4] | GI50 [5] | GI50 [6] | GI50 [7] | GI50 [8] | GI50 [9] | GI50 [10] | GI50 [11] | GI50 [12] | GI50 [13] | GI50 [14] | GI50 [15] | GI50 [16] | GI50 [17]
CC(C)CCC[C@@H](C)C1CCC2[C@@H]3CC=C4C[C@@H](OC(=O)CCC(=O)NCC[N+](C)(C)CCCS(=O)(=O)[O-])CC[C@]4(C)C3CC[C@@]21C (stereo partly specified) | 25.8 µM (inactive) | 17.6 µM (inactive) | 15.4 | 17.2 µM (inactive) | 15.2 µM (inactive) | 26.2 µM (inactive) | 17.9 µM (inactive) | 20 µM (inactive) | 19.3 µM (inactive) | 17.8 µM (inactive) | > 100 µM (inactive) | 19.5 µM (inactive) | 17.7 µM (inactive) | 26.3 µM (inactive) |  |  | 
Cc1c(C(=O)CSc2nc3ccccc3c(=O)n2-c2ccccc2)c(=O)n(-c2ccccc2)n1C | 19.9 µM (inactive) | 64.9 µM (inactive) | > 100 | 42.1 µM (inactive) | 37.8 µM (inactive) | 27.2 µM (inactive) | > 100 µM (inactive) | > 100 µM (inactive) | > 100 µM (inactive) | 99.3 µM (inactive) | 19.3 µM (inactive) | 97.7 µM (inactive) | > 100 µM (inactive) |  | 42.4 µM (inactive) | > 100 µM (inactive) | 62.4 µM (inactive)
NNC(=O)CNC(=O)c1ccc(Cl)cc1Cl | 39.8 µM (inactive) | > 100 µM (inactive) | 32.7 |  | > 100 µM (inactive) | > 100 µM (inactive) | > 100 µM (inactive) | > 100 µM (inactive) | > 100 µM (inactive) | > 100 µM (inactive) | > 100 µM (inactive) | > 100 µM (inactive) | 15.8 µM (inactive) | > 100 µM (inactive) | > 100 µM (inactive) | > 100 µM (inactive) | > 100 µM (inactive)
Nc1ncnc(NC2C=C(CO)C(O)C2O)c1[N+](=O)[O-] (stereo unspecified) | > 100 µM (inactive) | > 100 µM (inactive) | 42.9 | > 100 µM (inactive) | > 100 µM (inactive) |  | > 100 µM (inactive) | > 100 µM (inactive) | > 100 µM (inactive) | > 100 µM (inactive) | > 100 µM (inactive) | > 100 µM (inactive) | 28.1 µM (inactive) | > 100 µM (inactive) | > 100 µM (inactive) | > 100 µM (inactive) | > 100 µM (inactive)
COC1CCC(OC)C(C2(C3CC(OC)CCC3OC)OC(=O)c3ccccc32)C1 (stereo unspecified) | > 100 µM (inactive) | > 100 µM (inactive) | 37 |  | 86.3 µM (inactive) | 6.85 µM (inactive) | 70.8 µM (inactive) | 19.8 µM (inactive) | > 100 µM (inactive) |  | > 100 µM (inactive) | > 100 µM (inactive) | 59.2 µM (inactive) | 94.8 µM (inactive) | > 100 µM (inactive) | 68.4 µM (inactive) | 80.7 µM (inactive)
COC1(OC)CCC2C1C1CCC(OC)(OC)C21 (stereo unspecified) | > 50 µM (inactive) | > 50 µM (inactive) | > 50 |  |  | > 50 µM (inactive) | > 50 µM (inactive) | > 50 µM (inactive) | > 50 µM (inactive) | > 50 µM (inactive) | > 50 µM (inactive) | > 50 µM (inactive) | > 50 µM (inactive) | > 50 µM (inactive) | > 50 µM (inactive) | > 50 µM (inactive) | > 50 µM (inactive)
CCOC(=O)/C=C/n1c2ccccc2c(=O)c2ccccc21 | > 100 µM (inactive) | > 100 µM (inactive) | > 100 | > 100 µM (inactive) | > 100 µM (inactive) | > 100 µM (inactive) | > 100 µM (inactive) | > 100 µM (inactive) | > 100 µM (inactive) | > 100 µM (inactive) |  | > 100 µM (inactive) | > 100 µM (inactive) | > 100 µM (inactive) | > 100 µM (inactive) | > 100 µM (inactive) | > 100 µM (inactive)
CO/C=C(\Br)c1ccc2c(c1)OCO2 | > 100 µM (inactive) | > 100 µM (inactive) |  |  |  | > 100 µM (inactive) | > 100 µM (inactive) |  | > 100 µM (inactive) | > 100 µM (inactive) | > 100 µM (inactive) | > 100 µM (inactive) | > 100 µM (inactive) | 64.9 µM (inactive) | > 100 µM (inactive) | > 100 µM (inactive) | > 100 µM (inactive)
Nc1nc(CCC(=O)Nc2cccc(C(F)(F)F)c2)cc(-c2ccc3ccccc3c2)n1 | > 100 µM (inactive) | > 100 µM (inactive) | > 100 |  | > 100 µM (inactive) | > 100 µM (inactive) | > 100 µM (inactive) | > 100 µM (inactive) | > 100 µM (inactive) | > 100 µM (inactive) | > 100 µM (inactive) | > 100 µM (inactive) | > 100 µM (inactive) | > 100 µM (inactive) | > 100 µM (inactive) | > 100 µM (inactive) | > 100 µM (inactive)
CCc1nnc(S)n1/N=C/c1ccc(-c2ccc([N+](=O)[O-])cc2)o1 | > 100 µM (inactive) | > 100 µM (inactive) | > 100 | > 100 µM (inactive) | > 100 µM (inactive) | > 100 µM (inactive) | > 100 µM (inactive) | > 100 µM (inactive) | > 100 µM (inactive) | > 100 µM (inactive) | > 100 µM (inactive) | > 100 µM (inactive) | > 100 µM (inactive) | > 100 µM (inactive) |  | > 100 µM (inactive) | > 100 µM (inactive)
COC(=O)C1=C(C(=O)OC)C2(C)Nc3ccccc3C2=C(c2ccccc2)C1 (stereo unspecified) | 22.5 µM (inactive) | 20.4 µM (inactive) | 20.8 | 25.7 µM (inactive) | 19.4 µM (inactive) | 15.8 µM (inactive) | 17.9 µM (inactive) | 10.4 µM (inactive) | 19.1 µM (inactive) | 19.8 µM (inactive) |  | 23.7 µM (inactive) | 26.5 µM (inactive) | 16.7 µM (inactive) |  | 22.1 µM (inactive) | 19 µM (inactive)
O=c1cc(-c2ccccc2)oc2cc(OCC(O)COc3ccc4c(=O)cc(-c5ccccc5)oc4c3)ccc12 | 17.4 µM (inactive) | > 100 µM (inactive) | 89.1 | 25.3 µM (inactive) | 40.3 µM (inactive) | 28.4 µM (inactive) |  | > 100 µM (inactive) | 14.6 µM (inactive) | > 100 µM (inactive) | 16.8 µM (inactive) |  | 61.2 µM (inactive) | > 100 µM (inactive) | > 100 µM (inactive) | > 100 µM (inactive) | 43.9 µM (inactive)
COC12CCC(C(C(=O)c3ccccc3)=C1C(=O)c1ccccc1)C(O)C2 (stereo unspecified) | > 100 µM (inactive) | > 100 µM (inactive) | > 100 |  |  | > 100 µM (inactive) | > 100 µM (inactive) | > 100 µM (inactive) | > 100 µM (inactive) | > 100 µM (inactive) | > 100 µM (inactive) | > 100 µM (inactive) | > 100 µM (inactive) | > 100 µM (inactive) | 67.3 µM (inactive) | > 100 µM (inactive) | > 100 µM (inactive)
CCCCSC1CCSc2c1ccc1ccccc21 (stereo unspecified) | > 100 µM (inactive) | 77.8 µM (inactive) | 6.32 |  |  |  | > 100 µM (inactive) | > 100 µM (inactive) |  | > 100 µM (inactive) | > 100 µM (inactive) |  |  | > 100 µM (inactive) |  | > 100 µM (inactive) | > 100 µM (inactive)
CCOC(=O)C1S/C(=N\c2cccc(Cl)c2C)N=C1C (stereo unspecified) | 16.1 µM (inactive) | 21.9 µM (inactive) | > 10 | 18.1 µM (inactive) | 33 µM (inactive) | 18.8 µM (inactive) | 31 µM (inactive) | 22 µM (inactive) | 30.5 µM (inactive) | 40 µM (inactive) |  | 18.8 µM (inactive) | 28.4 µM (inactive) |  | 34.2 µM (inactive) | 31.3 µM (inactive) | > 10 µM (inactive)
N#C/C(=C\c1cc(O)cc(O)c1)C(N)=O | > 100 µM (inactive) | > 100 µM (inactive) | > 100 |  | > 100 µM (inactive) | 21 µM (inactive) | > 100 µM (inactive) | > 100 µM (inactive) | > 100 µM (inactive) | > 100 µM (inactive) | > 100 µM (inactive) | > 100 µM (inactive) | > 100 µM (inactive) | > 100 µM (inactive) | > 100 µM (inactive) | > 100 µM (inactive) | > 100 µM (inactive)
C[N+](C)(C)CCC(=O)CC[N+](C)(C)C | 18.9 µM (inactive) | > 100 µM (inactive) | 19.2 |  | 28.2 µM (inactive) | 15.4 µM (inactive) | 17.7 µM (inactive) | 4.68 µM (inactive) | 22.1 µM (inactive) | 21.6 µM (inactive) | > 100 µM (inactive) | > 10 µM (inactive) | 16.1 µM (inactive) | 21.5 µM (inactive) | 70.5 µM (inactive) | 87.3 µM (inactive) | 24.5 µM (inactive)
CC12CCC(=O)N1c1cc([N+](=O)[O-])ccc1N2 (stereo unspecified) | > 100 µM (inactive) | > 100 µM (inactive) | > 100 | > 100 µM (inactive) |  | > 100 µM (inactive) | > 100 µM (inactive) | > 100 µM (inactive) | > 100 µM (inactive) | > 100 µM (inactive) | > 100 µM (inactive) | > 100 µM (inactive) | > 100 µM (inactive) | > 100 µM (inactive) | > 100 µM (inactive) | > 100 µM (inactive) | > 100 µM (inactive)
